Earlier results as cited in PubChem BioAssay AID1259409 (Chemical Carcinogenesis Research Information System (CCRIS), 2018).

Tested on: rodent chemically induced tumor inhibition, incidence and multiplicity
Test: CCRIS tumor inhibitor studies
Conditions: Carcinogen: N-NITROBIS(2-OXOPROPYL)AMINE, 60559-38-4, Dose [Inhibitor]: 0.5 OR 1.0 MMOL/KG DIET DAILY STARTING 1 WK AFTER CARCINOGEN TREATMENT AND CONTINUING THROUGH THE END OF THE STUDY (STUD, Route [Inhibitor]: ORAL, Species: HAMSTER, Promoter: NONE USED

CC1=C(/C=C/C(C)=C/C=C/C(C)=C/C(=O)NCCO)C(C)(C)CCC1
tumour outcome (control, treated, inhibition, significance) (Strain/Sex: SYRIAN/FEMALE, Target Tissue: Type of Lesion: LIVER: BENIGN TUMOR, Dose [Carcinogen]: 40 MG/KG BW ONCE): 4/20 (20%), 17/35 (49%), -145%, not significant | tumour outcome (control, treated, inhibition, significance) (Strain/Sex: SYRIAN/FEMALE, Target Tissue: Type of Lesion: ND: TOTAL TUMOR, Dose [Carcinogen]: 10 MG/KG BW ONCE): 13/23 (56%), 21/37 (57%), -2%, not significant | tumour outcome (control, treated, inhibition, significance) (Strain/Sex: SYRIAN/FEMALE, Target Tissue: Type of Lesion: ND: TOTAL TUMOR, Dose [Carcinogen]: 40 MG/KG BW ONCE): 17/20 (85%), 33/34 (97%), -14%, not significant | tumour outcome (control, treated, inhibition, significance) (Strain/Sex: SYRIAN/FEMALE, Target Tissue: Type of Lesion: PANCREAS: DUCTULAR ADENOMA, Dose [Carcinogen]: 10 MG/KG BW ONCE): 5/23 (23%), 10/37 (27%), -17%, not significant | tumour outcome (control, treated, inhibition, significance) (Strain/Sex: SYRIAN/FEMALE, Target Tissue: Type of Lesion: PANCREAS: DUCTULAR ADENOMA, Dose [Carcinogen]: 40 MG/KG BW ONCE): 12/20 (60%), 27/33 (82%), -37%, not significant | tumour outcome (control, treated, inhibition, significance) (Strain/Sex: SYRIAN/FEMALE, Target Tissue: Type of Lesion: PANCREAS: DUCTULAR CARCINOMA, Dose [Carcinogen]: 40 MG/KG BW ONCE): 6/20 (30%), 8/33 (24%), 20%, not significant | tumour outcome (control, treated, inhibition, significance) (Strain/Sex: SYRIAN/MALE, Target Tissue: Type of Lesion: LIVER: BENIGN TUMOR, Dose [Carcinogen]: 40 MG/KG BW ONCE): 5/24 (21%), 26/42 (62%), -195%, p<0.05 | tumour outcome (control, treated, inhibition, significance) (Strain/Sex: SYRIAN/MALE, Target Tissue: Type of Lesion: ND: TOTAL TUMOR, Dose [Carcinogen]: 10 MG/KG BW ONCE): 12/20 (54%), 31/39 (79%), -46%, not significant | tumour outcome (control, treated, inhibition, significance) (Strain/Sex: SYRIAN/MALE, Target Tissue: Type of Lesion: ND: TOTAL TUMOR, Dose [Carcinogen]: 40 MG/KG BW ONCE): 20/24 (83%), 41/42 (98%), -18%, not significant | tumour outcome (control, treated, inhibition, significance) (Strain/Sex: SYRIAN/MALE, Target Tissue: Type of Lesion: PANCREAS: DUCTULAR ADENOMA, Dose [Carcinogen]: 10 MG/KG BW ONCE): 3/22 (14%), 16/37 (43%), -207%, not significant | tumour outcome (control, treated, inhibition, significance) (Strain/Sex: SYRIAN/MALE, Target Tissue: Type of Lesion: PANCREAS: DUCTULAR ADENOMA, Dose [Carcinogen]: 40 MG/KG BW ONCE): 8/24 (33%), 34/42 (81%), -145%, not significant
